From the supplement of paper PMC10307832

Key:
Assay in all cases: relative viability (nuclei count vs DMSO), 5 days (fraction); higher = more cells survive
NCI-H358 = tested on: NCI-H358
Summary of the method: (§1)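 Dosing by pin tool came one day after lung cancer cell lines were seeded in 1536-well plates, using either one drug or a fixed anchor-drug dose plus five library-drug doses (not always all listed) in √10 steps. After 5 days, nuclei were counted on 4× images. Relative viability is treated-well nuclei count divided by vehicle-well nuclei count, and values are medians of duplicate plates.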

NCI-H650 = tested on: NCI-H650
Summary of the method: as §1

UMC-11 = tested on: UMC-11
Summary of the method: as §1

NCI-H2126 = tested on: NCI-H2126
Summary of the method: as §1

EPLC-272H = tested on: EPLC-272H
Summary of the method: as §1

NCI-H2347 = tested on: NCI-H2347
Summary of the method: as §1

HCC-15 = tested on: HCC-15
Summary of the method: as §1

ABC-1 = tested on: ABC-1
Summary of the method: as §1

NCI-H1993 = tested on: NCI-H1993
Summary of the method: as §1

COR-L23 = tested on: COR-L23
Summary of the method: as §1

SW 1573 = tested on: SW 1573
Summary of the method: as §1

LU99A = tested on: LU99A
Summary of the method: as §1

HOP-62 = tested on: HOP-62
Summary of the method: as §1

LC-2-ad = tested on: LC-2-ad
Summary of the method: as §1

NCI-H1651 = tested on: NCI-H1651
Summary of the method: as §1

NCI-H2023 = tested on: NCI-H2023
Summary of the method: as §1

NCI-H1915 = tested on: NCI-H1915
Summary of the method: as §1

NCI-H838 = tested on: NCI-H838
Summary of the method: as §1

NCI-H2085 = tested on: NCI-H2085
Summary of the method: as §1

NCI-H1355 = tested on: NCI-H1355
Summary of the method: as §1

HARA = tested on: HARA
Summary of the method: as §1

PC-14 = tested on: PC-14
Summary of the method: as §1

`COc1nc(C)cnc1NS(=O)(=O)c1cccnc1-c1ccc(-c2nnco2)cc1` [Zibotentan] + COc1cc2c(Oc3ccc(NC(=O)C4(C(=O)Nc5ccc(F)cc5)CC4)cc3F)ccnc2cc1OCCCN1CCOCC1 [Foretinib] (partner 0.25 µM) gave a relative viability (NCI-H358; first compound 0.08 µM) of 0.809, a relative viability (NCI-H358; first compound 0.253 µM) of 0.485 and a relative viability (NCI-H358; first compound 0.8 µM) of 0.595. It also gave a relative viability (NCI-H358; first compound 2.53 µM) of 0.57, a relative viability (NCI-H650; first compound 0.08 µM) of 1.1 and a relative viability (NCI-H650; first compound 0.253 µM) of 0.877. The relative viability (NCI-H650; first compound 0.8 µM) was 1.07, the relative viability (NCI-H650; first compound 2.53 µM) was 0.994 and the relative viability (UMC-11; first compound 0.08 µM) was 1.05. For the same compound, the relative viability (UMC-11; first compound 0.253 µM) was 0.92, the relative viability (UMC-11; first compound 0.8 µM) was 0.991 and the relative viability (UMC-11; first compound 2.53 µM) was 1.04. For the same compound, the relative viability (NCI-H2126; first compound 0.08 µM) was 1.33, the relative viability (NCI-H2126; first compound 0.253 µM) was 1.26 and the relative viability (NCI-H2126; first compound 0.8 µM) was 0.982. The relative viability (NCI-H2126; first compound 2.53 µM) was 1.14, the relative viability (EPLC-272H; first compound 0.08 µM) was 0.696 and the relative viability (EPLC-272H; first compound 0.253 µM) was 0.641. The relative viability (EPLC-272H; first compound 0.8 µM) was 0.901, the relative viability (EPLC-272H; first compound 2.53 µM) was 0.787 and the relative viability (NCI-H2347; first compound 0.08 µM) was 0.995. It also gave a relative viability (NCI-H2347; first compound 0.253 µM) of 0.896, a relative viability (NCI-H2347; first compound 0.8 µM) of 0.947 and a relative viability (NCI-H2347; first compound 2.53 µM) of 0.655. For the same compound, the relative viability (HCC-15; first compound 0.08 µM) was 1.05, the relative viability (HCC-15; first compound 0.8 µM) was 1.03 and the relative viability (HCC-15; first compound 2.53 µM) was 1.05. It also gave a relative viability (ABC-1; first compound 0.08 µM) of 0.9, a relative viability (ABC-1; first compound 0.253 µM) of 0.936 and a relative viability (ABC-1; first compound 0.8 µM) of 1.06. It also gave a relative viability (ABC-1; first compound 2.53 µM) of 1.16, a relative viability (NCI-H1993; first compound 0.08 µM) of 0.753 and a relative viability (NCI-H1993; first compound 0.253 µM) of 0.811. For the same compound, the relative viability (NCI-H1993; first compound 0.8 µM) was 0.702, the relative viability (NCI-H1993; first compound 2.53 µM) was 0.832 and the relative viability (COR-L23; first compound 0.08 µM) was 1.21. The relative viability (COR-L23; first compound 0.253 µM) was 0.926, the relative viability (COR-L23; first compound 0.8 µM) was 0.989 and the relative viability (COR-L23; first compound 2.53 µM) was 0.894. The relative viability (SW 1573; first compound 0.08 µM) was 0.966, the relative viability (SW 1573; first compound 0.253 µM) was 0.692 and the relative viability (SW 1573; first compound 0.8 µM) was 0.983. The relative viability (SW 1573; first compound 2.53 µM) was 0.82, the relative viability (LU99A; first compound 0.08 µM) was 0.953 and the relative viability (LU99A; first compound 0.253 µM) was 0.8. For the same compound, the relative viability (LU99A; first compound 0.8 µM) was 0.888, the relative viability (LU99A; first compound 2.53 µM) was 0.918 and the relative viability (HOP-62; first compound 0.08 µM) was 1.06. It also gave a relative viability (HOP-62; first compound 0.253 µM) of 1.06, a relative viability (HOP-62; first compound 0.8 µM) of 1.21 and a relative viability (HOP-62; first compound 2.53 µM) of 1.07. The relative viability (LC-2-ad; first compound 0.08 µM) was 1.02, the relative viability (LC-2-ad; first compound 0.8 µM) was 0.955 and the relative viability (LC-2-ad; first compound 2.53 µM) was 0.954. The relative viability (NCI-H1651; first compound 0.08 µM) was 0.815, the relative viability (NCI-H1651; first compound 0.253 µM) was 0.569 and the relative viability (NCI-H1651; first compound 0.8 µM) was 0.488. It also gave a relative viability (NCI-H1651; first compound 2.53 µM) of 0.99, a relative viability (NCI-H2023; first compound 0.08 µM) of 0.942 and a relative viability (NCI-H2023; first compound 0.253 µM) of 0.668. For the same compound, the relative viability (NCI-H2023; first compound 0.8 µM) was 0.932, the relative viability (NCI-H2023; first compound 2.53 µM) was 0.978 and the relative viability (NCI-H1915; first compound 0.08 µM) was 1.16. It also gave a relative viability (NCI-H1915; first compound 0.253 µM) of 1.1, a relative viability (NCI-H1915; first compound 0.8 µM) of 1.06 and a relative viability (NCI-H1915; first compound 2.53 µM) of 1.07. For the same compound, the relative viability (NCI-H838; first compound 0.08 µM) was 0.992, the relative viability (NCI-H838; first compound 0.253 µM) was 0.934 and the relative viability (NCI-H838; first compound 0.8 µM) was 1.06. The relative viability (NCI-H838; first compound 2.53 µM) was 1.08, the relative viability (NCI-H2085; first compound 0.08 µM) was 0.97 and the relative viability (NCI-H2085; first compound 0.253 µM) was 1.05. The relative viability (NCI-H2085; first compound 0.8 µM) was 0.928, the relative viability (NCI-H2085; first compound 2.53 µM) was 1.18 and the relative viability (NCI-H1355; first compound 0.08 µM) was 0.988. The relative viability (NCI-H1355; first compound 0.253 µM) was 1.02, the relative viability (NCI-H1355; first compound 0.8 µM) was 0.955 and the relative viability (NCI-H1355; first compound 2.53 µM) was 0.927. The relative viability (HARA; first compound 0.08 µM) was 1, the relative viability (HARA; first compound 0.253 µM) was 0.743 and the relative viability (HARA; first compound 0.8 µM) was 0.883. It also gave a relative viability (HARA; first compound 2.53 µM) of 0.874, a relative viability (PC-14; first compound 0.08 µM) of 1.03 and a relative viability (PC-14; first compound 0.253 µM) of 0.897. It also gave a relative viability (PC-14; first compound 0.8 µM) of 0.924 and a relative viability (PC-14; first compound 2.53 µM) of 1.
